Literature values as cited in patent US10563263B2, “Genetic polymorphisms associated with statin response and cardiovascular diseases, methods of detection and uses thereof” (CELERA CORPORATION, priority 2010, dated 2020).

Tested on: myocyte cultures
Settings: animal models and myocyte cultures; compared to lipophilic statins; cited from earlier work

SMILES: CC[C@H](C)C(=O)O[C@H]1C[C@H](O)C=C2C=C[C@H](C)[C@H](CC[C@@H](O)C[C@@H](O)CC(=O)O)[C@H]21 [Pravastatin, pravastatin]
- myopathic potential: low myopathic potential
